This note sets out measurements from ChEMBL document CHEMBL1201862, “PubChem BioAssay data set” (2004).

Some test systems named below: SW-620; MOLT-4; SK-OV-3; SK-MEL-2; SR; NCI/ADR-RES; MDA-MB-231; NCI-H522; HOP-92; HL-60; T47D; NCI-H226; SK-MEL-5; DU-145; OVCAR-8; UO-31; SK-MEL-28; LXFL 529.
Common to all, as to test: DTP human tumour cell line panel, 48 h

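Five compound concentrations were applied to cells in 96-well plates for 48 hours; endpoints were derived by simple linear interpolation of the resulting dose-response curve. GI50 = concentration required for 50% inhibition of growth.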 Activity calls are given as the source filed them. Rule as the data show it: active = GI50 up to about 1.1 µM and inactive = higher.

With `C=C1CC/C=C(\C)CCC[C@H](C)[C@@H](O)[C@@H]2OC(=O)C(=C)[C@@H]2C[C@H]1O`, the GI50 was 2.22 µM (inactive) in the assay on SW-620; 2.13 µM (inactive) with MOLT-4; 29.8 µM (inactive) with SK-OV-3; 13.3 µM (inactive) in the assay with SK-MEL-2; 4.83 µM (inactive) in the assay with SR; 8.3 µM (inactive) in the assay on NCI/ADR-RES. Further, the GI50 was 14.9 µM (inactive) in the assay with MDA-MB-231; 1.84 µM (inactive) in the assay with NCI-H522; 1.18 µM (inactive) with HOP-92; 2.42 µM (inactive) in the assay with HL-60; 8.24 µM (inactive) in the assay on T47D; 4.05 µM (inactive) in the assay on NCI-H226. Further, the GI50 was 5.05 µM (inactive) in the assay with SK-MEL-5; 4.57 µM (inactive) in the assay on DU-145; 4.71 µM (inactive) in the assay on OVCAR-8; 6.22 µM (inactive) with UO-31; 2.99 µM (inactive) in the assay with SK-MEL-28.
With `CN(C)c1ccc(/C=N/c2nc3cc4sc(/N=C/c5ccc(N(C)C)cc5)nc4cc3s2)cc1`, the GI50 in the assay with SW-620 is 33.9 µM (inactive); in the assay with MOLT-4 it was 12.9 µM (inactive); in the assay with SK-OV-3, 41.8 µM (inactive); with SK-MEL-2, > 100 µM (inactive); in the assay on SR, 29.4 µM (inactive); with NCI/ADR-RES, > 100 µM (inactive). Also, the GI50 in the assay with MDA-MB-231 was > 100 µM (inactive); in the assay with NCI-H522, 9.98 µM (inactive); in the assay on HOP-92 it was > 100 µM (inactive); in the assay with HL-60 it was 16.9 µM (inactive); with T47D, 42.5 µM (inactive); in the assay on NCI-H226, 33.3 µM (inactive). Moreover, the GI50 was > 100 µM (inactive) in the assay with SK-MEL-5; 8.22 µM (inactive) in the assay on DU-145; 76 µM (inactive) in the assay with OVCAR-8; 92.7 µM (inactive) in the assay with UO-31; > 100 µM (inactive) in the assay on SK-MEL-28.
As for `O=C(Nc1sccc1S(=O)(=O)c1ccc(Cl)cc1)c1ccccc1`, the GI50 with SW-620, in the assay with MOLT-4, in the assay on SK-OV-3, in the assay on SK-MEL-2, with SR and in the assay with NCI/ADR-RES was > 100 µM (inactive) throughout. Moreover, the GI50 in the assay on MDA-MB-231, in the assay on NCI-H522, with HOP-92, in the assay on HL-60, in the assay with T47D and in the assay on NCI-H226 was > 100 µM (inactive) in each case. Also, the GI50 in the assay on SK-MEL-5, with DU-145, with OVCAR-8, in the assay on UO-31 and in the assay with SK-MEL-28 was > 100 µM (inactive) throughout.
For `O=CC(I)=C(c1ccccc1)c1ccccc1`, the GI50 is 8.47 µM (inactive) in the assay on SW-620; 11.3 µM (inactive) in the assay on MOLT-4; 13.6 µM (inactive) in the assay with SK-OV-3; 16.9 µM (inactive) in the assay with SK-MEL-2; 6.92 µM (inactive) in the assay on SR; 20 µM (inactive) with NCI/ADR-RES. Further, the GI50 in the assay on MDA-MB-231 was 14.6 µM (inactive); with NCI-H522, 16.2 µM (inactive); in the assay on HOP-92 it was 18.9 µM (inactive); in the assay with HL-60, 6.5 µM (inactive); in the assay on T47D it was 13.3 µM (inactive); in the assay with NCI-H226 it was 23.8 µM (inactive). The GI50 in the assay on SK-MEL-5 is 17.3 µM (inactive); with DU-145 it was 15.2 µM (inactive); in the assay with OVCAR-8, 21.7 µM (inactive); with UO-31 it was 14.3 µM (inactive); with SK-MEL-28, 17.2 µM (inactive).
`Nc1ncnn2c(C3OC(CO)C(O)C3O)ccc12` (stereo not drawn): the GI50 was 0.123 µM (active) in the assay with SW-620; 0.153 µM (active) in the assay with MOLT-4; 0.226 µM (active) in the assay on SK-OV-3; 0.148 µM (active) in the assay on SK-MEL-2; 0.0364 µM (active) with SR; 0.237 µM (active) with NCI/ADR-RES. Moreover, the GI50 in the assay with MDA-MB-231 is 0.153 µM (active); with NCI-H522, 0.237 µM (active); with HOP-92, 0.0173 µM (active); in the assay with HL-60 it was 0.105 µM (active); with T47D, 0.291 µM (active); with NCI-H226, 0.235 µM (active). The GI50 is 0.226 µM (active) in the assay with SK-MEL-5; 0.23 µM (active) in the assay on DU-145; 0.0991 µM (active) with OVCAR-8; 0.12 µM (active) in the assay on UO-31; 0.164 µM (active) in the assay with SK-MEL-28.
As for `CCOC1C=CC(=O)C(CO)O1` (stereo not drawn), the GI50 in the assay with SW-620 is 9.23 µM (inactive); with MOLT-4 it was 6.65 µM (inactive); in the assay with SK-OV-3 it was 18.8 µM (inactive); in the assay on SK-MEL-2, 19.4 µM (inactive); in the assay on SR it was 1.99 µM (inactive); in the assay on NCI/ADR-RES it was 14.9 µM (inactive). The GI50 with MDA-MB-231 was 17.3 µM (inactive); in the assay on NCI-H522, 1.67 µM (inactive); in the assay on HOP-92, 2.57 µM (inactive); in the assay on HL-60, 5.57 µM (inactive); in the assay on T47D, 8.81 µM (inactive); with NCI-H226 it was 24 µM (inactive). Moreover, the GI50 is 21.1 µM (inactive) in the assay with SK-MEL-5; 15.8 µM (inactive) with DU-145; 11.6 µM (inactive) with OVCAR-8; 2.21 µM (inactive) in the assay with UO-31; 16.9 µM (inactive) with SK-MEL-28.
Take `O=C1CC2CCCCC2=C1O` (stereo not drawn): the GI50 in the assay with LXFL 529, in the assay on SW-620, in the assay with MOLT-4, with SK-OV-3, in the assay with SK-MEL-2 and in the assay on NCI-H522 was > 100 µM (inactive) throughout. Besides, the GI50 in the assay on HL-60, in the assay with SK-MEL-5, with OVCAR-8, in the assay with UO-31 and with SK-MEL-28 was > 100 µM (inactive) in each case.
In the case of `FC(F)(F)c1ccccc1N1CCN(c2nc(-c3cccs3)nc3ccc(Br)cc23)CC1`, the GI50 is 38.6 µM (inactive) in the assay with SW-620; 44.5 µM (inactive) with MOLT-4; 57.3 µM (inactive) in the assay with SK-OV-3; 24.9 µM (inactive) with SK-MEL-2; 31.6 µM (inactive) in the assay with SR; 41.8 µM (inactive) in the assay with NCI/ADR-RES. Moreover, the GI50 with MDA-MB-231 was 21 µM (inactive); in the assay on NCI-H522, 35 µM (inactive); in the assay on HOP-92 it was < 0.01 µM (active); in the assay with HL-60, 36.4 µM (inactive); in the assay with T47D it was 2.37 µM (inactive); in the assay on NCI-H226 it was 30.8 µM (inactive). Also, the GI50 with SK-MEL-5 was 14.6 µM (inactive); in the assay with DU-145, 63.4 µM (inactive); with OVCAR-8, 66.2 µM (inactive); in the assay with UO-31, 47.8 µM (inactive); in the assay on SK-MEL-28, 35.8 µM (inactive).
Regarding `CCOC(=O)CCN1C(=O)C(=O)N(c2ccc(OC)cc2)C1=S`, the GI50 in the assay on SW-620, in the assay with MOLT-4, in the assay with SK-OV-3, in the assay with SK-MEL-2, in the assay with SR and in the assay with NCI/ADR-RES was > 100 µM (inactive) in each case. For the same compound, the GI50 in the assay with MDA-MB-231 was > 100 µM (inactive); in the assay with NCI-H522 it was 14.8 µM (inactive); in the assay with HOP-92 it was > 100 µM (inactive); in the assay with HL-60, > 100 µM (inactive); in the assay on T47D it was > 100 µM (inactive); in the assay on NCI-H226, 25.6 µM (inactive). Also, the GI50 with SK-MEL-5 is > 100 µM (inactive); in the assay on DU-145, > 100 µM (inactive); with OVCAR-8, > 100 µM (inactive); with UO-31, 56.5 µM (inactive); in the assay with SK-MEL-28, > 100 µM (inactive).
As to `N=C(N)c1ccc(C(NC(=O)CNS(=O)(=O)c2ccc3ccccc3c2)P(=O)(Oc2ccccc2)Oc2ccccc2)cc1` (stereo not drawn), the GI50 was 53.2 µM (inactive) in the assay with SW-620; 21 µM (inactive) with MOLT-4; 61.9 µM (inactive) in the assay on SK-OV-3; > 100 µM (inactive) with SK-MEL-2; 29.4 µM (inactive) with SR; 69.5 µM (inactive) in the assay on NCI/ADR-RES. Moreover, the GI50 in the assay on MDA-MB-231 was 41.2 µM (inactive); in the assay with NCI-H522, 41.2 µM (inactive); in the assay with HOP-92, 29.6 µM (inactive); in the assay on HL-60, 14.2 µM (inactive); with T47D it was 65.3 µM (inactive); in the assay on NCI-H226, 17.7 µM (inactive). Also, the GI50 in the assay on SK-MEL-5 was 39.1 µM (inactive); in the assay on DU-145 it was > 100 µM (inactive); in the assay with OVCAR-8, > 100 µM (inactive); in the assay on UO-31, 40.3 µM (inactive); in the assay on SK-MEL-28, > 100 µM (inactive).
As to `CC1(C)C2CCC3CC(CCC#N)CCC3C21C#N` (stereo not drawn), the GI50 in the assay on SW-620, in the assay on MOLT-4, with SK-OV-3, in the assay on SK-MEL-2, in the assay on SR and in the assay with NCI/ADR-RES was > 100 µM (inactive) each time. Moreover, the GI50 in the assay on MDA-MB-231, in the assay on NCI-H522, with HOP-92, in the assay with HL-60, with T47D and with NCI-H226 was > 100 µM (inactive) in each case. The GI50 in the assay with SK-MEL-5, in the assay with DU-145, with OVCAR-8, with UO-31 and with SK-MEL-28 was > 100 µM (inactive) in each case.
On to `COc1cc2oc(-c3ccc(O)cc3O)c(CC=C(C)C)c(=O)c2c(O)c1/C=C/C(C)C` [ARTOCARPIN], for which the GI50 in the assay with SW-620 was 2.33 µM (inactive); in the assay with MOLT-4 it was 2.33 µM (inactive); in the assay with SK-OV-3, 7.21 µM (inactive); in the assay with SK-MEL-2 it was 6.41 µM (inactive); in the assay on SR it was 2.02 µM (inactive); with NCI/ADR-RES it was 2.64 µM (inactive). Further, the GI50 in the assay on MDA-MB-231 was 2.55 µM (inactive); with NCI-H522, 3.24 µM (inactive); with HOP-92, 3.08 µM (inactive); with HL-60, 2.75 µM (inactive); with T47D, 7.1 µM (inactive); in the assay with NCI-H226, 3.58 µM (inactive). The GI50 with SK-MEL-5 is 1.69 µM (inactive); in the assay with DU-145, 4.26 µM (inactive); with OVCAR-8 it was 1.75 µM (inactive); in the assay on UO-31, 2.95 µM (inactive); with SK-MEL-28, 5.85 µM (inactive).

For orientation: GI50 means the concentration that inhibits growth by half.
